Source: paper PMC4389225, “Triaminopyrimidine is a fast-killing and long-acting antimalarial clinical candidate” (Nature Communications, 2015)
Values joined by “and” are separate entries in the source; they are usually repeats but may differ in a detail not shown here. Equal entries are not always repeated. Where two headings read alike, the source gives them in different places.

How the values were obtained:
[1] = in vitro; assay type: in vitro ADME; settings: pH 7.4, Michaelis-Menten
Protocol: Supplementary Note 3: Metabolism of 12 in the presence of mouse (MLM) and human […]
The kinetics of metabolism of compound 12 to form the N-demethylated metabolite, 9, was studied by incubating 12 with HLM or MLM. Compound 12 was incubated with 1 mg/mL of pooled liver microsomes at four different compound concentrations (5, 10, 20 and 30 μM) in 166 µL of buffer containing 100 mM phosphate buffer, pH 7.4 and 1 mM NADPH, at 37°C.
Aliquots of 20 µL of incubation mix were quenched with 4 volumes of ice-cold acetonitrile at different time points, i.e., 0, 5, 10, 20 and 30 min in a 96 well microtitre plate. The quenched plate was centrifuged at 4000 rpm for 15 min and 20 µL of the supernatant was diluted to 200 µL with 50% acetonitrile in water. Depletion of 12 and formation of 9 was analysed by LC-MS/MS. Concentrations of 12 and 9 were determined using calibration curves prepared with synthetic standards. Kinetics of metabolite formation or parent depletion is shown in supplementary Fig. 5, Fig. 6 and kinetic parameters are described in supplementary Table […]
The rate and extent of metabolite formation in the presence of mouse liver microsomes was […]
than in the presence of HLM.

[2] = tested on: Dd2-6R F2 B5; assay: SYBR green growth assay, Dd2-6R F2 B5
Protocol: Assays were carried out in 384-well format with three technical replicates within an assay day and biological replicates carried out on three different assay days to assign a final EC50.
The drug was then washed off and the parasites were allowed to recover in normal growth media.

[3] = parameters: species or system human
Source text: Supplementary Note 5: Prediction of human clearance for compound 12 by IVIVE.
Human clearance (CL) was predicted by in vitro-in vivo extrapolation (IVIVE) from the in vitro Clint in human hepatocytes6. In vitro Clint was scaled to in vivo Clint as follows:
Clint in vivo = Clint in vitro * scaling factors * fublood/fuinc
The liver weights used for scaling were 40, 32 and 24 g/kg body weight in rat, dog and human respectively. Hepatocellularity used for scaling was 163, 169 and 120 (X 106) cells/g liver in rat, dog and human respectively. Free fraction in blood was calculated as fuplasma /Blood:Plasma (BP) ratio. BP ratio and free fraction in the hepatocyte incubation mix, fuinc, were measured in vitro. Slope and intercept from the linear regression analysis of IVIVC for a large number of AstraZeneca compounds was applied for final correction in the scaled in vivo Clint. A well stirred model was used for CL prediction.
Where Qh is the liver blood flow. The values of Qh in rat, dog and human are 72, 55 and 20 mL.min-1kg-1 in rat, dog and human, respectively. In vitro parameters, observed in vivo CL and predicted CL are shown in supplementary Table 10.
Prediction of human CL and Vss by rat and dog allometry. Human CL for 12 was also predicted by simple, two species (rat and dog) allometry based on CL and Vss estimates from rat and dog IVPK. The coefficient and exponent from allometry were used for human CL prediction by the Fu corrected intercept method (FCIM)7. CL was predicted as […]
(also on this page, place not known: in vivo in vivo CLintQ CLintQCL Predicted predicted predicted h h + ×=)
(1 picture or pasted object on this page, not shown here)
Where ‘a’ is the coefficient obtained from simple allometric scaling and Rfup is the ratio of free fractions in plasma, fup in rat to fup in human. Vss in human was predicted by simple, rat and dog allometry (supplementary Table 11).
Prediction of human PK profile. The predicted human CL and Vss estimates could be used for predicting human PK with a one compartment distribution. However, rat and dog IVPK profiles indicated a two compartment distribution. Parameters for the two compartment distribution in human were predicted by Wajima transformation8 of rat and dog IVPK […]
CLd, Vt and Vc estimates, assuming similar Ka (0.3/h) and F (0.7) as observed in rats (supplementary Fig. 12 ).
Predicted human PK parameters are shown in supplementary Table 12. Human CL estimates predicted by the FCIM method and IVIVE (3.8 ml/min/kg) were identical. The […]
Human efficacy was predicted after treatment of 70 kg adult with a single 260 mg dose, assuming 2% parasitemia at the onset of treatment and assuming one compartment distribution of 12 in humans (supplementary Fig. 13). Similar efficacy was predicted if 12 was distributed in two compartments.

[4] = 260 mg / 70 kg, two compartment

Cc1nc(Nc2ncc(N3CCN(C)[C@H](C)C3)c(Nc3cc(C)n(C)n3)n2)cc(C2CC2)c1F [compound 12, (R)-N2-(4-cyclopropyl-5-fluoro-6-methylpyridin-2-yl)-N4-(1,5-dimethyl-1H-pyrazol-3-yl)-5-(3,4-dimethylpiperazin-1-yl)pyrimidine-2,4-diamine]
Km ([1]; human, HLM): 22.5 µM | Km ([1]; mouse, MLM): 78.3 µM | IC50 ([2]; Plasmodium falciparum, DD2): 81 ± 17.9 nM | increase in IC50 compared with the parental Dd2 line ([2]; compound 6-resistant Dd2-6R clones (five clones)): 3-6 fold | Predicted human CL [3, 4]: 4.33 mL/min/kg | Predicted human CLd [3, 4]: 20 mL/min/kg | Predicted human Vc [3, 4]: 4.0 L/kg | Predicted human Vt [3, 4]: 7.3 L/kg | Human CL predicted by the FCIM method and IVIVE ([3]; Human): 3.8 mL/min/kg | Predicted blood CL ([3]; Human): 24 % LBF | Predicted blood CL ([3]; Human, IVIVE from hepatocyte Clint): 3.8 mL/min/kg | Predicted human F ([3]; assumed similar to rats): 0.7 | Predicted human Ka ([3]; assumed similar to rats): 0.3 h⁻¹ | B—predicted mean human plasma Cmax free ([3]; human, 260 mg dose): 8.7 nM | predicted half-life in human ([3]; human, predicted): ~ 36 h and 36 h | Allometry parameter B (exponent), CL ([3]; rat and dog allometry): 1.08 | Allometry parameter a (coefficient), CL ([3]; rat and dog allometry): 0.6
